Source: BindingDB's records for doi:10.1016/j.chembiol.2016.02.015 (Max Planck Institute of Molecular Physiology, 2016)
pIC50: −log10 of the molar value.

What was measured:
[1] = molecular target: Casein kinase I isoform epsilon (Homo sapiens, UniProt P49674); assay: KinaseGlo Plus Luminescent Assay; settings: pH 7.5
Protocol: (§1) A stock solution of 5 % DMSO (BioReagent for molecular biology, Sigma Aldrich) in water was prepared. The CK1 substrate peptide RRKDLHDDEEDEAMSITA (Jena Bioscience, cat. no. PE-206, 2 mM stock solution in water) was diluted in water to a final concentration of 250 μM. CK1δ or CK1Ɛ kinases were diluted with CK1 dilution buffer to 50 ng / µL. In addition, fresh Reaction buffer was prepared containing 250 mM Tris-HCl (pH 7.5), 50 mM MgCl2, 5 mM DTT and 0.5 mg / mL bovine serum albumin (BSA). Compounds were serially diluted in 5 % DMSO solution to the desired concentrations (maximal concentration employed in the assay was 50 µM). Additional samples included blank sample containing Reaction buffer, water and CK1δ / CK1Ɛ kinase and control sample containing Reaction buffer, CK1 substrate peptide and CK1δ / CK1Ɛ kinase. CK1 substrate peptide, Reaction buffer and CK1δ / CK1Ɛ kinase stock solutions were mixed in 1:1:1 ratio. 6 μL of this mixtur

[2] = molecular target: Casein kinase I isoform delta (Homo sapiens, UniProt P48730); assay: KinaseGlo Plus Luminescent Assay; settings: pH 7.5
Protocol: as §1

[3] = molecular target: Casein kinase I isoform alpha (Homo sapiens, UniProt P48729); assay: Radiometric-Based Assay (CK1α)
Protocol: Single-point measurements analyses and subsequent dose-dependent investigations of selected pteridine derivatives for inhibition of CK1α were performed at Reaction Biology (USA) using a radiometric-based assay and ATP concentration of 10 µM. For more details related to the experimental conditions employed please consult the following websites: http://www.reactionbiology.com/webapps/site/KinaseDetail.aspx.

[4] = molecular target: T1, Serine/threonine-protein kinase BRSK1 (Homo sapiens, UniProt Q8TDC3); assay: Radiometric-Based Assay (Epiblastin A)
T1 sequence (Q8TDC3 whole entry): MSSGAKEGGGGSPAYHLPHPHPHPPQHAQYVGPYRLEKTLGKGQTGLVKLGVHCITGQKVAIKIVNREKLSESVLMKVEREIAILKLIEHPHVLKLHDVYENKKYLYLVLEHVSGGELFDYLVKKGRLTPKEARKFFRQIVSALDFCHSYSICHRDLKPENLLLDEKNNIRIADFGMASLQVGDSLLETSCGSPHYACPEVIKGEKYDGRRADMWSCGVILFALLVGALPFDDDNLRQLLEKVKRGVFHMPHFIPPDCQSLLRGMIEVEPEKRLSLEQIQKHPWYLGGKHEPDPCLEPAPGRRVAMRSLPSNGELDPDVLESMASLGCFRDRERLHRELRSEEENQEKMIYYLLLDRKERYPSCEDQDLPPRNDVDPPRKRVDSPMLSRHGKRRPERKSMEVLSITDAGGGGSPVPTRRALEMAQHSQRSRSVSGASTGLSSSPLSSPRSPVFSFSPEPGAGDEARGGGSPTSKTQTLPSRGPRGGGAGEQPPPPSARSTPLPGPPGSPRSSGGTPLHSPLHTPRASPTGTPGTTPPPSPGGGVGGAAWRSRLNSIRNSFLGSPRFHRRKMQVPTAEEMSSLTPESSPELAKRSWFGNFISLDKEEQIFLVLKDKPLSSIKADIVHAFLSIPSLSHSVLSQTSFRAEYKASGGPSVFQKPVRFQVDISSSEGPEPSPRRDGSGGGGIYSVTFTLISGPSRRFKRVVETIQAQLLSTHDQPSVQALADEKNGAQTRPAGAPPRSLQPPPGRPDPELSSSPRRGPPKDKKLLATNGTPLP
Description: (§2) Dose-dependent investigations of Epiblastin A against BrSK1, Egfr, eEF2k, Mknk2, Ripk2 and Stk10 have been performed under the same experimental setup, i.e. at Km-ATP value. Half-maximal inhibitory concentrations (IC50) were obtained by fitting the obtained data with three parameter nonlinear regression analysis using GraphPad Prism version 6.00 for Windows (GraphPad Software, USA). For more details related to the experimental conditions employed at Eurofins please consult the following website: http://www.eurofins.com/pharma-services/pharma-discovery-services/services/in-vitropharmacology/kinases/biochemical.aspx

[5] = molecular target: Receptor-interacting serine/threonine-protein kinase 2 (Homo sapiens, UniProt O43353); assay: Radiometric-Based Assay (Epiblastin A)
Description: as §2

[6] = molecular target: T2, Epidermal growth factor receptor [1-973] (Homo sapiens, UniProt P00533); assay: Radiometric-Based Assay (Epiblastin A)
T2 construct: 1-973
Description: as §2

[7] = molecular target: MAP kinase-interacting serine/threonine-protein kinase 2 (Homo sapiens, UniProt Q9HBH9); assay: Radiometric-Based Assay (Epiblastin A)
Description: as §2

[8] = molecular target: T3, Eukaryotic elongation factor 2 kinase (Homo sapiens, UniProt O00418); assay: Radiometric-Based Assay (Epiblastin A)
T3 sequence (O00418 whole entry): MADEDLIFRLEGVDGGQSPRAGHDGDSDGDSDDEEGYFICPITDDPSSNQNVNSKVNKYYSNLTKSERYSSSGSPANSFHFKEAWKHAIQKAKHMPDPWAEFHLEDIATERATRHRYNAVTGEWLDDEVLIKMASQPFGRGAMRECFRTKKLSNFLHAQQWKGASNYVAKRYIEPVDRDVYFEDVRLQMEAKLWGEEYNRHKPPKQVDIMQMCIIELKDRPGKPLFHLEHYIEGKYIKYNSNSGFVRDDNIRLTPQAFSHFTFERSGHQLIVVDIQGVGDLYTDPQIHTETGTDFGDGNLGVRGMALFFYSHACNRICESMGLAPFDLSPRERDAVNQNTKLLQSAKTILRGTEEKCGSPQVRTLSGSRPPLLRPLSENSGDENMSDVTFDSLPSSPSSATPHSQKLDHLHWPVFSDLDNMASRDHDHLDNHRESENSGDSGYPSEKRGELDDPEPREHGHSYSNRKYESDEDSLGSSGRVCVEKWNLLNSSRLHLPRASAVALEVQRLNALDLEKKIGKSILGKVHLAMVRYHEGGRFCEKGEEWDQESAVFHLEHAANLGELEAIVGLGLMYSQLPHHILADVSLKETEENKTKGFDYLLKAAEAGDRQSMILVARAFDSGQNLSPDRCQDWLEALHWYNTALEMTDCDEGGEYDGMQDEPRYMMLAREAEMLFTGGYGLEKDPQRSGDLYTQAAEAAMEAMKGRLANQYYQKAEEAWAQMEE
Description: as §2

Chain of Casein kinase I isoform alpha (P48729 whole entry, canonical isoform): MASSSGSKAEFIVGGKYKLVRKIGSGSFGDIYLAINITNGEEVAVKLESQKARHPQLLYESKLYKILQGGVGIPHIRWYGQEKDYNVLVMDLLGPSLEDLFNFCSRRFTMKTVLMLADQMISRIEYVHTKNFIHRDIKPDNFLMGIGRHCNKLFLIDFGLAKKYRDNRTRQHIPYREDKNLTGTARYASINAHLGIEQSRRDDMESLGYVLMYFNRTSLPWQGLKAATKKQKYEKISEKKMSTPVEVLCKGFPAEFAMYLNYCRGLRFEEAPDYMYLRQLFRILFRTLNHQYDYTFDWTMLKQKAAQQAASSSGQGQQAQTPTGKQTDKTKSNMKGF
Chain of Casein kinase I isoform epsilon (P49674 whole entry, canonical isoform): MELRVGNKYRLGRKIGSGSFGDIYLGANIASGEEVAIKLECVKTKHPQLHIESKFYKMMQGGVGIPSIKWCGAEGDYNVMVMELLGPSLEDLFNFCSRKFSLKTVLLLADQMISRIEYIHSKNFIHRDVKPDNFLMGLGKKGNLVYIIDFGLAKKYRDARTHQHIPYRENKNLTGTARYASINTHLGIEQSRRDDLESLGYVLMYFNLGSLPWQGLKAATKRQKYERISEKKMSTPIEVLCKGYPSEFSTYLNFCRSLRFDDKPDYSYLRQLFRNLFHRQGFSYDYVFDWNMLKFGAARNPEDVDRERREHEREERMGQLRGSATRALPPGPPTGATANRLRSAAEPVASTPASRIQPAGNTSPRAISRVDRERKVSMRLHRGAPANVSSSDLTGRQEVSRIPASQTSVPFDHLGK
Chain of Casein kinase I isoform delta (P48730 whole entry, canonical isoform): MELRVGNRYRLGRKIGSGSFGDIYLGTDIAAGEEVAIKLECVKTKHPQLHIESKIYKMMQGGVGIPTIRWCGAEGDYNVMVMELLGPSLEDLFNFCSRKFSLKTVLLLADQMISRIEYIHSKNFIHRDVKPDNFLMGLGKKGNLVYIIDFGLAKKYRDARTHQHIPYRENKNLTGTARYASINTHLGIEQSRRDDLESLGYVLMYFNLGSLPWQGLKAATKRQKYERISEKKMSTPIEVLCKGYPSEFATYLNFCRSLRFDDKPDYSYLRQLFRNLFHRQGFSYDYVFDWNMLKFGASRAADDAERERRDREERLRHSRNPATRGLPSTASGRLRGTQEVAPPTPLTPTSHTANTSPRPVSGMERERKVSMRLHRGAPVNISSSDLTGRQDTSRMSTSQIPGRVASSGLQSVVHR
Chain of MAP kinase-interacting serine/threonine-protein kinase 2 (Q9HBH9 whole entry): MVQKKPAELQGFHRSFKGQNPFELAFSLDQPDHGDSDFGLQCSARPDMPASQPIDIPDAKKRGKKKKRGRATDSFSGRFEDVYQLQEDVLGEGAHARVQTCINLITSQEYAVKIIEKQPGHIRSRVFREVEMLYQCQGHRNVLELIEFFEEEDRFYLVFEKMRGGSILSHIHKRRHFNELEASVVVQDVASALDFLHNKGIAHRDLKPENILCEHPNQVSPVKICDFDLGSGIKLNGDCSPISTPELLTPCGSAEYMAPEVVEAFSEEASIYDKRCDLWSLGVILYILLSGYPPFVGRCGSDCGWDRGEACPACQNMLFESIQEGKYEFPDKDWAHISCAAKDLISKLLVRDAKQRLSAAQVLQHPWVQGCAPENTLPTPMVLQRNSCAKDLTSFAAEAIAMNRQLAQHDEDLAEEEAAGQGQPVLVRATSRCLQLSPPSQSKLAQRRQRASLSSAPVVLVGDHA
T2 sequence (P00533 1-973): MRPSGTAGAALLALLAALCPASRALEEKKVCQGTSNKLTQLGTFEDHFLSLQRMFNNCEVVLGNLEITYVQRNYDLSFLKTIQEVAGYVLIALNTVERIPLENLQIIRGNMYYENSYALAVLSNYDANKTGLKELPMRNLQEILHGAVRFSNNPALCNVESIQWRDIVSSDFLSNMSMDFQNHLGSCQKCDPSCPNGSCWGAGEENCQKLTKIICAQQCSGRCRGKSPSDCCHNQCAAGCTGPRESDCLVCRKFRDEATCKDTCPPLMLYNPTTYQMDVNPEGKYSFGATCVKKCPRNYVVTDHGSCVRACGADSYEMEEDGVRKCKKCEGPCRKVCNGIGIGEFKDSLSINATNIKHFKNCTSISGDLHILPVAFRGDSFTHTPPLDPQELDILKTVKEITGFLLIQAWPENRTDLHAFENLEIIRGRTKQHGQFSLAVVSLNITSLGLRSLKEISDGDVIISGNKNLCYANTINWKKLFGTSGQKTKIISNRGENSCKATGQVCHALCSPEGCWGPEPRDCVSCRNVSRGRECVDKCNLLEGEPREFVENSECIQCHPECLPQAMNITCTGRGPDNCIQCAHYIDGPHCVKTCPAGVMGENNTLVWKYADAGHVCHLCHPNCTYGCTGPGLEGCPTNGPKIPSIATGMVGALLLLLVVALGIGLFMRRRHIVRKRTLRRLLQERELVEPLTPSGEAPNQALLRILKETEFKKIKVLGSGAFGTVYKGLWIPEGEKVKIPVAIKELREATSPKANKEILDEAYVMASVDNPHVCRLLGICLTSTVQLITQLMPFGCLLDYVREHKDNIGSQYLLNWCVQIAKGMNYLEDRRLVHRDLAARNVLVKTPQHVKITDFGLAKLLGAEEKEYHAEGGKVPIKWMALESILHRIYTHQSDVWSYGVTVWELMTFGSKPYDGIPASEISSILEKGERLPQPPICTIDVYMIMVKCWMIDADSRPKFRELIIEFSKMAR
Chain of Receptor-interacting serine/threonine-protein kinase 2 (O43353 whole entry): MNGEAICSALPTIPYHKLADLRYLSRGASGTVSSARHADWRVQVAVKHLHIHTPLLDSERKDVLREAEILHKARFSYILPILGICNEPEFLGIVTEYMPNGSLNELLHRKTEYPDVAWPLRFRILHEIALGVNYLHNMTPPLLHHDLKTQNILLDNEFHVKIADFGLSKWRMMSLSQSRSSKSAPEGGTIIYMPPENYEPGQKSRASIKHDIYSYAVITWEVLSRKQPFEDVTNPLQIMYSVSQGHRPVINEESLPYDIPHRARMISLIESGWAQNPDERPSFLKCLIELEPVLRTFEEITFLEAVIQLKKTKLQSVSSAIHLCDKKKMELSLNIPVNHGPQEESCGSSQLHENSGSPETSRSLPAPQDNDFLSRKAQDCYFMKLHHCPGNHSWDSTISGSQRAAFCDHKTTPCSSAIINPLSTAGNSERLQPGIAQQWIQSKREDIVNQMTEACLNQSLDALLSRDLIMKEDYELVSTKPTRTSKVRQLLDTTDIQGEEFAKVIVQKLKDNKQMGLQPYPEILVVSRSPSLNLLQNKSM

`Nc1nc(N)c2nc(-c3ccccc3F)c(N)nc2n1` [6-(2-fluorophenyl)pteridine-2,4,7-triamine (23)] was tested, and the pIC50 [1] was 4.55.
In the case of `Nc1nc(N)c2nc(-c3cc(F)ccc3F)c(N)nc2n1` [6-(2,5-difluorophenyl)pteridine-2,4,7-triamine (28)], the pIC50 [1] was 4.42.
`Nc1nc(N)c2nc(-c3cccc(Br)c3)c(N)nc2n1` [6-(3-bromophenyl)pteridine-2,4,7-triamine (18)] gave a pIC50 [2] of 5.60 and a pIC50 [3] of 5.03.
In the case of `Nc1nc(N)c2nc(-c3ccccc3)c(N)nc2n1` [Pteridine deriv. 11], the pIC50 [2] was 4.44, the pIC50 [1] was 4.57 and the pIC50 [3] was 4.43.
Compound `Nc1nc(N)c2nc(-c3ccccc3)cnc2n1` [6-phenylpteridine-2,4-diamine (35)] has a pIC50 [2] of 4.09, a pIC50 [1] of 5.22 and a pIC50 [3] of 4.53.
`Nc1ccc(-c2nc3c(N)nc(N)nc3nc2N)cc1` [6-(4-aminophenyl)pteridine-2,4,7-triamine (10)] showed a pIC50 [2] of 4.09.
For `Nc1nc(N)c2nc(-c3cccnc3)c(N)nc2n1` [6-(pyridin-3-yl)pteridine-2,4,7-triamine (33)], the pIC50 [2] was 4.79 and the pIC50 [1] was 4.81.
Work on `COc1cccc(-c2nc3c(N)nc(N)nc3nc2N)c1` [6-(3-methoxyphenyl)pteridine-2,4,7-triamine (20)] yielded a pIC50 [2] of 4.91 and a pIC50 [1] of 4.58.
In the case of `Nc1nc(N)c2nc(-c3cccc(Oc4ccccc4)c3)c(Cc3ccccc3)nc2n1` [7-benzyl-6-(3-phenoxyphenyl)pteridine-2,4-diamine (36)], the pIC50 [2] was 5.02, the pIC50 [1] was 5.18 and the pIC50 [3] was 5.26.
`Nc1nc(N)c2nc(-c3csc4ccccc34)c(N)nc2n1` [6-(1-benzothiophen-3-yl)pteridine-2,4,7-triamine (31)] was tested, and the pIC50 [2] was 5.55, the pIC50 [1] was 6.22 and the pIC50 [3] was 5.25.
`Nc1nc(N)c2nc(-c3cccs3)c(N)nc2n1` [6-(thiophen-2-yl)pteridine-2,4,7-triamine (32)] gave a pIC50 [2] of 4.61, a pIC50 [1] of 5.09 and a pIC50 [3] of 4.85.
Work on `Nc1nc(N)c2nc(-c3c(F)cccc3F)c(N)nc2n1` [6-(2,6-difluorophenyl)pteridine-2,4,7-triamine (27)] yielded a pIC50 [2] of 4.45 and a pIC50 [1] of 4.29.
In the case of `Nc1nc(N)c2nc(-c3cccc(F)c3)c(N)nc2n1` [6-(3-fluorophenyl)pteridine-2,4,7-triamine (16)], the pIC50 [2] was 4.21, the pIC50 [1] was 4.84 and the pIC50 [3] was 4.48.
In the case of `Nc1nc(N)c2nc(-c3c(Cl)cccc3Cl)c(N)nc2n1` [6-(2,6-dichlorophenyl)pteridine-2,4,7-triamine (24)], the pIC50 [1] was 4.41.
Compound `Nc1cccc(-c2nc3c(N)nc(N)nc3nc2N)c1` [6-(3-aminophenyl)pteridine-2,4,7-triamine (21)] has a pIC50 [2] of 4.49 and a pIC50 [1] of 4.91.
Work on `Nc1nc(N)c2nc(-c3cccc(Cl)c3)c(N)nc2n1` [Epiblastin A] yielded a pIC50 [2] of 6.30, a pIC50 [1] of 5.33 and a pIC50 [4] of 4.62. For the same compound, the pIC50 [5] was 4.42, the pIC50 [6] was 5.08 and the pIC50 [7] was 4.35. The pIC50 [8] was 4.56 and the pIC50 [3] was 5.05.
In the case of `Cc1cccc(-c2nc3c(N)nc(N)nc3nc2N)c1` [6-m-Tolyl-pteridine-2,4,7-triamine], the pIC50 [2] was 4.69.
Compound `Nc1nc(N)c2nc(-c3ccc(Cl)cc3Cl)c(N)nc2n1` [6-(2,4-dichlorophenyl)pteridine-2,4,7-triamine (25)] has a pIC50 [1] of 5.37 and a pIC50 [3] of 4.25.
